US11466020B2, “Compounds and compositions for inhibition and elimination of Zika infection and uses for same” (Cornell University, priority 2017, dated 2022)
Where a name gives a salt, the structure may show the parent alone.

Test system: ZIKV MR766
Test: Inhibition of ZIKV infection of hNPCs (high content screen / inhibitory curve, ZIKV E staining)
Assay type: cell-based, Zika virus
Details: for ZIKV infection of hNPCs compared to DMSO controls: 72 h after ZIKV (MR766) infection; for IC50: Zika virus, hNPCs, ZIKV MR766 MOI=0.125, compound added before infection, infection rate (ZIKV E+ cells), read-out: IC50 values of anti-ZIKV activity
Method: A high content chemical screen identifies compounds that inhibit ZIKV infection of hNPCs. To identify drugs that inhibit ZIKV infection, we screened the Prestwick library that includes 1120 FDA-approved drug and drug candidates, selected for known bioavailability and safety in humans. To perform the screen, hNPCs seeded in 384-well plates were treated with each compound from the library or vehicle control (DMSO) for 1 hour, followed by addition of ZIKV MR766 at a MOI=0.125. After two hour of inoculation with ZIKV, the virus-containing medium was replaced by fresh virus-free medium and compounds were replenished for each well (See Methods). After an additional three days of culture, cells were fixed and stained with antibodies against the ZIKV envelop protein (ZIKV E) and a cell proliferation marker Ki67 (FIG. 1A). The percentages of ZIKV E^+ cells, Ki67^+ cells and total cell number were quantified by an automated imaging and analysis system. A two dimensional analysis was performed to choose the primary hit compounds (FIG. 5A). The X-axis represents the fold change of total cell number, which was calculated by dividing the total cell number of the chemical-treated well by the average total cell number of DMSO-treated wells. The Y-axis represents the fold change of the percentage of ZIKV infected cells, which was calculated by dividing the percentage of cells expressing ZIKV E in each chemical-treated well by the average of the percentage of cells expressing ZIKV E from DMSO-treated wells. […] Based on the fold change of the percentage of ZIKV infection, the signal-to-basal (S/B) ratio is 4.2 and the coefficient of variation (CV) is 6.9%. The Z factor is 0.59 indicating a robust screening system.
hNPCs were plated on 96-well plates at 8.5×10^4/cm^2. After overnight incubation, hNPCs were infected with ZIKV (MR766 strain, MOI=0.125) for 2 h, and changed to virus-free medium. The cells were maintained in NPC medium with daily medium change. Three days later, the supernatant and cells were collected and used for assays. hESC-derived forebrain organoids were infected with ZIKV MR766 (5×10^5 PFU/ml) for 24 h. After removal of virus containing medium, forebrain organoids were maintained in forebrain organoid medium for an additional 3 or 17 days and then used for assays.
High-content Screen. hNPCs were dissociated and plated on Matrigel-coated 384-well plates for the chemical screen. […] DMSO was used as a negative control. ZIKV MR766 was added at MOI=0.125. After 2 hour infection, the supernatant was replaced with fresh medium and compounds from the same chemical library were added to the same wells. After an additional 3 days incubation, cells were fixed, stained with antibodies against ZIKV envelop protein (ZIKV E) and proliferation marker Ki67, and analyzed with the ImageXpress^MICRO Automated High-Content Analysis System. […] X-axis represents the fold change of total cell number, which was calculated by dividing the total cell number of the chemical treated well by the average of total cell number of DMSO treated wells. Y-axis represents the fold change of the percentage of ZIKV infection, which was calculated by dividing the percentage of ZIKV infection of the chemical treated well by the average of the percentage of ZIKV infection of DMSO treated wells. The compounds in which the fold change of total cell number >1 and the fold change of the percentage of ZIKV infection <20% were further evaluated. […]

Row | SMILES | ZIKV infection of hNPCs compared to DMSO controls | IC50
1 | CN1CCC2=C[C@H](O)[C@H]3OC(=O)c4cc5c(cc4[C@H]3[C@@H]21)OCO5 [HH, hippeastrine hydrobromide] | effectively inhibited ZIKV infection | 5.5 µM
2 | CCN(CC)Cc1cc(Nc2ccnc3cc(Cl)ccc23)ccc1O [AQ, amodiaquine dihydrochloride dihydrate] | effectively inhibited ZIKV infection | 6 µM
